Results reported in patent US10668043B2, “Potentiated antimicrobial agents” (priority 2014, dated 2020).
In brackets after ≈: the same amount, converted by molar mass.

Tests used:
[1] = system: E. coli; assay: etest on agar containing the booster; type: cell-based; set-up: MIC (e-test): unit not given beside the values
Text: (§1) The corresponding tests are made based on the usual MIC test: the etest® (Biomerieux) strip is deposited onto the surface of a seeded agar medium in which the booster has been incorporated. This test enables solvent effect risks, that is a possible interaction with the solvent used in vitro, to be minimised.
(§2) The control corresponds to the test made without cineol. A control is made in each solvent tested: distilled water, Tween/water and DMSO. • ED control=antibiotic alone in distilled water • DMSO control=antibiotic alone in DMSO • TE control=antibiotic alone in Tween® 80

[2] = system: Staphylococcus; assay: etest on agar containing the booster; type: cell-based; set-up: MIC (e-test): unit not given beside the values
Text: as §1, §2

[3] = system: Pasteurella; assay: etest on agar containing the booster; type: cell-based
Text: The corresponding tests are made based on the usual MIC test: the etest® (Biomerieux) strip is deposited onto the surface of a seeded agar medium in which the booster has been incorporated.
as §2
Other e-tests are also made on Pasteurella.

[4] = system: E. coli; assay: Double dilution test; type: cell-based
Text: (§3) The double dilution test is a MIC measurement test made on successive dilutions of the 2 products of the composition. […] The summary table expresses for each strain and for each dilution of the booster the measured antibiotic MIC.
(§4) The code enabling the results to be interpreted is the following one: no sign “^+” if the MIC is equivalent with and without booster, a sign “^+” if the value is lower with booster.

[5] = system: Staphylococcus; assay: Double dilution test; type: cell-based; details: strain 8148
Text: as §3, §4

[6] = system: MSSA 8238; details: Balb/c, mouse, in vivo
Protocol: To Balb/c mice, is injected (Sc.) the antimicrobial product or the antimicrobial+booster mixture.
At different post-injection times, the mice are euthanised, and blood sampled, heparined and centrifuged to extract plasma thereof
Antibacterial effects are measured after 24 h incubation. The successive dilutions enable the antimicrobial effect to be determined and compared with the MIC. The efficient concentration/MIC ratio is thus determined.

MIC (e-test) ([1]; strain 8141, Cineol 4 mg/L, DMSO): 6^+ | MIC (e-test) ([1]; strain 8141, Cineol 16 mg/L, DMSO): 0.1^+ | MIC (e-test) ([1]; strain 8141, ED control, no cineol): 8^+ | MIC (e-test) ([1]; strain 8150, Cineol 4 mg/L, DMSO): 6^+ | MIC (e-test) ([1]; strain 8150, Cineol 16 mg/L, DMSO): 0.1^+ | MIC (e-test) ([1]; strain 8150, ED control, no cineol): 8^+ | MIC (e-test) ([1]; strain 8156, Cineol 4 mg/L, DMSO): 8^+ | MIC (e-test) ([1]; strain 8156, Cineol 16 mg/L, DMSO): 8^+ | MIC (e-test) ([1]; strain 8156, ED control, no cineol): 12^+ | MIC (e-test) ([1]; strain ATCC25922, Cineol 4 mg/L, DMSO): 12^+ | MIC (e-test) ([1]; strain ATCC25922, Cineol 16 mg/L, DMSO): 12^+ | MIC (e-test) ([1]; strain ATCC25922, ED control, no cineol): 16^+ | MIC (e-test) ([2]; strain 8143, Cineol 4 mg/L, DMSO): 1.5^+ | MIC (e-test) ([2]; strain 8143, Cineol 16 mg/L, DMSO): 1.5^+ | MIC (e-test) ([2]; strain 8143, ED control, no cineol): 2^+ | MIC (e-test) ([2]; strain 8146, Cineol 4 mg/L, DMSO): 0.38^+ | MIC (e-test) ([2]; strain 8146, Cineol 16 mg/L, DMSO): 0.19^+ | MIC (e-test) ([2]; strain 8146, ED control, no cineol): 0.5^+ | MIC (e-test) ([2]; strain 8149, Cineol 4 mg/L, DMSO): 0.5^+ | MIC (e-test) ([2]; strain 8149, Cineol 16 mg/L, DMSO): 0.38^+ | MIC (e-test) ([2]; strain 8149, ED control, no cineol): 1^+ | MIC (e-test) ([2]; strain 8240, Cineol 4 mg/L, DMSO): 12^+ | MIC (e-test) ([2]; strain 8240, Cineol 16 mg/L, DMSO): 16^+ | MIC (e-test) ([2]; strain 8240, ED control, no cineol): 24^+ | MIC (e-test) ([2]; strain 8241, Cineol 4 mg/L, DMSO): 8^+ | MIC (e-test) ([2]; strain 8241, Cineol 16 mg/L, DMSO): 12^+ | MIC (e-test) ([2]; strain 8241, ED control, no cineol): 32^+ | MIC (e-test) ([2]; strain 10168, Cineol 4 mg/L, DMSO): 1^+ | MIC (e-test) ([2]; strain 10168, Cineol 16 mg/L, DMSO): 1^+ | MIC (e-test) ([2]; strain 10168, ED control, no cineol): 2^+ | MIC (e-test) ([3]; strain 14012, 5 mg cineol DMSO): 0.094 µg/mL (≈ 0.257 µM) | MIC (e-test) ([3]; strain 14012, 5 mg cineol TE): 0.094 µg/mL (≈ 0.257 µM) | MIC (e-test) ([3]; strain 14012, 5 mg cineol water): 0.094 µg/mL (≈ 0.257 µM) | MIC (e-test) ([3]; strain 14012, 10 mg cineol TE): 0.094 µg/mL (≈ 0.257 µM) | MIC (e-test) ([3]; strain 14012, 10 mg cineol water): 0.094 µg/mL (≈ 0.257 µM) | MIC (e-test) ([3]; strain 14012, DMSO control): 0.094 µg/mL (≈ 0.257 µM) | MIC (e-test) ([3]; strain 14012, ED control): 0.032 µg/mL (≈ 0.0876 µM) | MIC (e-test) ([3]; strain 14012, TE control): 0.19 µg/mL (≈ 0.52 µM) | MIC (e-test) ([3]; strain 14013, 5 mg cineol DMSO): 0.25 µg/mL (≈ 0.684 µM) | MIC (e-test) ([3]; strain 14013, 5 mg cineol TE): 0.25 µg/mL (≈ 0.684 µM) | MIC (e-test) ([3]; strain 14013, 5 mg cineol water): 0.25 µg/mL (≈ 0.684 µM) | MIC (e-test) ([3]; strain 14013, 10 mg cineol DMSO): 0.25 µg/mL (≈ 0.684 µM) | MIC (e-test) ([3]; strain 14013, 10 mg cineol water): 0.19 µg/mL (≈ 0.52 µM) | MIC (e-test) ([3]; strain 14013, DMSO control): 0.19 µg/mL (≈ 0.52 µM) | MIC (e-test) ([3]; strain 14013, ED control): 0.19 µg/mL (≈ 0.52 µM) | MIC (e-test) ([3]; strain 14013, TE control): 0.25 µg/mL (≈ 0.684 µM) | MIC (e-test) ([3]; strain 14014, 5 mg cineol DMSO): 0.094 µg/mL (≈ 0.257 µM) | MIC (e-test) ([3]; strain 14014, 5 mg cineol TE): 0.094 µg/mL (≈ 0.257 µM) | MIC (e-test) ([3]; strain 14014, 5 mg cineol water): 0.19 µg/mL (≈ 0.52 µM) | MIC (e-test) ([3]; strain 14014, 10 mg cineol TE): 0.094 µg/mL (≈ 0.257 µM) | MIC (e-test) ([3]; strain 14014, ED Control): 0.094 µg/mL (≈ 0.257 µM) | MIC (e-test) ([3]; strain 14014, TE control): 0.094 µg/mL (≈ 0.257 µM) | amoxicillin MIC ([4]; strain 8137, Amox, cineol 0): 8 µg/mL | amoxicillin MIC ([4]; strain 8137, cineol 10 mg/L): 0.5^+ | amoxicillin MIC ([4]; strain 8137, cineol 20 mg/L): 8 µg/mL | amoxicillin MIC ([4]; strain 8137, cineol 37.5 mg/L): 8 µg/mL | amoxicillin MIC ([4]; strain 8137, cineol 75 mg/L): 8 µg/mL | amoxicillin MIC ([4]; strain 8137, cineol 150 mg/L): 8 µg/mL | amoxicillin MIC ([4]; strain 8137, cineol 300 mg/L): 8 µg/mL | amoxicillin MIC ([4]; strain 8137, cineol 600 mg/L): 8 µg/mL | amoxicillin MIC ([4]; strain 8137, cineol 2,500 mg/L): 8 µg/mL | amoxicillin MIC ([4]; strain 8137, cineol 5,000 mg/L): 8 µg/mL | amoxicillin MIC ([4]; strain 8137, cineol 25,000 mg/L): 4^+ | amoxicillin MIC ([4]; strain 8137, cineol 50,000 mg/L): 0.25^+ | amoxicillin MIC ([4]; strain 8137, cineol […]): 8 µg/mL | amoxicillin MIC ([4]; strain 8151, Amox, cineol 0): 8 µg/mL | amoxicillin MIC ([4]; strain 8151, cineol 10 mg/L): 0.5^+ | amoxicillin MIC ([4]; strain 8151, cineol 20 mg/L): 8 µg/mL | amoxicillin MIC ([4]; strain 8151, cineol 37.5 mg/L): 8 µg/mL | amoxicillin MIC ([4]; strain 8151, cineol 75 mg/L): 8 µg/mL | amoxicillin MIC ([4]; strain 8151, cineol 150 mg/L): 8 µg/mL | amoxicillin MIC ([4]; strain 8151, cineol 300 mg/L): 8 µg/mL | amoxicillin MIC ([4]; strain 8151, cineol 600 mg/L): 8 µg/mL | amoxicillin MIC ([4]; strain 8151, cineol 2,500 mg/L): 8 µg/mL | amoxicillin MIC ([4]; strain 8151, cineol 5,000 mg/L): 8 µg/mL | amoxicillin MIC ([4]; strain 8151, cineol 10,000 mg/L): 4^+ | amoxicillin MIC ([4]; strain 8151, cineol 25,000 mg/L): 4^+ | amoxicillin MIC ([4]; strain 8151, cineol 50,000 mg/L): 0.25^+ | amoxicillin MIC ([4]; strain 8151, cineol […]): 8 µg/mL | amoxicillin MIC ([4]; strain 8155, Amox, cineol 0): 8 µg/mL | amoxicillin MIC ([4]; strain 8155, cineol 10 mg/L): 0.5^+ | amoxicillin MIC ([4]; strain 8155, cineol 20 mg/L): 8 µg/mL | amoxicillin MIC ([4]; strain 8155, cineol 37.5 mg/L): 8 µg/mL | amoxicillin MIC ([4]; strain 8155, cineol 75 mg/L): 8 µg/mL | amoxicillin MIC ([4]; strain 8155, cineol 150 mg/L): 8 µg/mL | amoxicillin MIC ([4]; strain 8155, cineol 300 mg/L): 8 µg/mL | amoxicillin MIC ([4]; strain 8155, cineol 600 mg/L): 8 µg/mL | amoxicillin MIC ([4]; strain 8155, cineol 2,500 mg/L): 8 µg/mL | amoxicillin MIC ([4]; strain 8155, cineol 5,000 mg/L): 8 µg/mL | amoxicillin MIC ([4]; strain 8155, cineol 10,000 mg/L): 8 µg/mL | amoxicillin MIC ([4]; strain 8155, cineol 25,000 mg/L): 4^ | amoxicillin MIC ([4]; strain 8155, cineol 50,000 mg/L): 0.25^+ | amoxicillin MIC ([4]; strain 8155, cineol […]): 8 µg/mL | amoxicillin MIC ([4]; strain 8156, Amox, cineol 0): 8 µg/mL | amoxicillin MIC ([4]; strain 8156, cineol 10 mg/L): 0.5^+ | amoxicillin MIC ([4]; strain 8156, cineol 20 mg/L): 8 µg/mL | amoxicillin MIC ([4]; strain 8156, cineol 37.5 mg/L): 8 µg/mL | amoxicillin MIC ([4]; strain 8156, cineol 75 mg/L): 8 µg/mL | amoxicillin MIC ([4]; strain 8156, cineol 150 mg/L): 8 µg/mL | amoxicillin MIC ([4]; strain 8156, cineol 300 mg/L): 8 µg/mL | amoxicillin MIC ([4]; strain 8156, cineol 600 mg/L): 8 µg/mL | amoxicillin MIC ([4]; strain 8156, cineol 2,500 mg/L): 16 µg/mL | amoxicillin MIC ([4]; strain 8156, cineol 5,000 mg/L): 8 µg/mL | amoxicillin MIC ([4]; strain 8156, cineol 10,000 mg/L): 8 µg/mL | amoxicillin MIC ([4]; strain 8156, cineol 25,000 mg/L): 8^ | amoxicillin MIC ([4]; strain 8156, cineol 50,000 mg/L): 4^+ | amoxicillin MIC ([4]; strain 8156, cineol […]): 8 µg/mL | amoxicillin MIC ([4]; strain ATCC 25922, Amox, cineol 0): 8 µg/mL | amoxicillin MIC ([4]; strain ATCC 25922, cineol 10 mg/L): 0.5^+ | amoxicillin MIC ([4]; strain ATCC 25922, cineol 20 mg/L): 8 µg/mL | amoxicillin MIC ([4]; strain ATCC 25922, cineol 37.5 mg/L): 8 µg/mL | amoxicillin MIC ([4]; strain ATCC 25922, cineol 75 mg/L): 8 µg/mL | amoxicillin MIC ([4]; strain ATCC 25922, cineol 150 mg/L): 8 µg/mL | amoxicillin MIC ([4]; strain ATCC 25922, cineol 300 mg/L): 8 µg/mL | amoxicillin MIC ([4]; strain ATCC 25922, cineol 600 mg/L): 8 µg/mL | amoxicillin MIC ([4]; strain ATCC 25922, cineol 2,500 mg/L): 16 µg/mL | amoxicillin MIC ([4]; strain ATCC 25922, cineol 5,000 mg/L): 8 µg/mL | amoxicillin MIC ([4]; strain ATCC 25922, cineol 25,000 mg/L): 4^+ | amoxicillin MIC ([4]; strain ATCC 25922, cineol 50,000 mg/L): 0.06^+ | amoxicillin MIC ([4]; strain ATCC 25922, cineol […]): 8 µg/mL | amoxicillin MIC ([5]; Amox, cineol 0): 8 µg/mL | amoxicillin MIC ([5]; cineol 10 mg/L): 0.5^+ | amoxicillin MIC ([5]; cineol 20 mg/L): 8 µg/mL | amoxicillin MIC ([5]; cineol 37.5 mg/L): 8 µg/mL | amoxicillin MIC ([5]; cineol 75 mg/L): 8 µg/mL | amoxicillin MIC ([5]; cineol 150 mg/L): 8 µg/mL | amoxicillin MIC ([5]; cineol 300 mg/L): 8 µg/mL | amoxicillin MIC ([5]; cineol 600 mg/L): 8 µg/mL | amoxicillin MIC ([5]; cineol 2,500 mg/L): 8 µg/mL | amoxicillin MIC ([5]; cineol 5,000 mg/L): 8 µg/mL | amoxicillin MIC ([5]; cineol 10,000 mg/L): 4 µg/mL | amoxicillin MIC ([5]; cineol 25,000 mg/L): 16^ | amoxicillin MIC ([5]; cineol 50,000 mg/L): 0.25^+ | amoxicillin MIC ([5]; cineol […]): 8 µg/mL | Time spent beyond the MIC [6]: <5 h
Structure (SMILES): CC1(C)S[C@@H]2[C@H](NC(=O)[C@H](N)c3ccc(O)cc3)C(=O)N2[C@H]1C(=O)O [Amox, amoxicillin]
